Test results taken from patent US20240415914A1, “Water Dispersible Cannabinoid Compositions” (priority 2021, published 2024).
Like-named read-outs stand apart in the source and are kept apart here.

Assays:
[1] = type: physicochemical; settings: for Stability in Powder Concentrate (content by LCMSMS): stored at room temperature (21-25° C.)
Experimental: At each time period, 0.05 g of powder was dissolved in 10 ml-15 of ethanol, diluted to fall within the analytical range, and injected into the LCMSMS for analysis.

[2] = Stability of cannabinoid and Vitamin E components of Beverage 2 (AB Red) stored at 8° C. and 21-25° C., LCMSMS over 570 days; settings: for Chemical stability over the entire period (result in words): AB Red
Experimental: The LCMSMS was calibrated for 0-50 ng/ml cannabinoids with the same resin material used in the preparation of the concentrates. At each time period, 100 μml of beverage was diluted with 10 ml of methanol and injected into the LCMSMS for analysis.

## CCCCCc1cc(O)c2c(c1)OC(C)(C)[C@@H]1CCC(C)=C[C@@H]21 [D9 THC, delta-9-tetrahydrocannabinol, reference compound]
[1]; powder concentrate, room temperature (21-25° C.), 570 days
  Chemical stability over the entire period (result in words): no significant degradation
[1]; day 0
  Stability in Powder Concentrate (content by LCMSMS): 2.55 mg/g powder
[1]; day 1
  Stability in Powder Concentrate (content by LCMSMS): 2.55 mg/g powder
[1]; day 2
  Stability in Powder Concentrate (content by LCMSMS): 2.46 mg/g powder
[1]; day 3
  Stability in Powder Concentrate (content by LCMSMS): 2.63 mg/g powder
[1]; day 5
  Stability in Powder Concentrate (content by LCMSMS): 2.66 mg/g powder
[1]; day 8
  Stability in Powder Concentrate (content by LCMSMS): 2.49 mg/g powder
[1]; day 9
  Stability in Powder Concentrate (content by LCMSMS): 2.49 mg/g powder
[1]; day 10
  Stability in Powder Concentrate (content by LCMSMS): 2.60 mg/g powder
[1]; day 11
  Stability in Powder Concentrate (content by LCMSMS): 2.58 mg/g powder
[1]; day 12
  Stability in Powder Concentrate (content by LCMSMS): 2.65 mg/g powder
[1]; day 15
  Stability in Powder Concentrate (content by LCMSMS): 2.49 mg/g powder
[1]; day 16
  Stability in Powder Concentrate (content by LCMSMS): 2.54 mg/g powder
[1]; day 17
  Stability in Powder Concentrate (content by LCMSMS): 2.54 mg/g powder
[1]; day 18
  Stability in Powder Concentrate (content by LCMSMS): 2.55 mg/g powder
[1]; day 19
  Stability in Powder Concentrate (content by LCMSMS): 2.51 mg/g powder
[1]; day 22
  Stability in Powder Concentrate (content by LCMSMS): 2.46 mg/g powder
[1]; day 23
  Stability in Powder Concentrate (content by LCMSMS): 2.65 mg/g powder
[1]; day 24
  Stability in Powder Concentrate (content by LCMSMS): 2.60 mg/g powder
[1]; day 25
  Stability in Powder Concentrate (content by LCMSMS): 2.55 mg/g powder
[1]; day 26
  Stability in Powder Concentrate (content by LCMSMS): 2.52 mg/g powder
[1]; day 29
  Stability in Powder Concentrate (content by LCMSMS): 2.47 mg/g powder
[1]; day 30
  Stability in Powder Concentrate (content by LCMSMS): 2.66 mg/g powder
[1]; day 60
  Stability in Powder Concentrate (content by LCMSMS): 2.66 mg/g powder
[1]; day 90
  Stability in Powder Concentrate (content by LCMSMS): 2.49 mg/g powder
[1]; day 120
  Stability in Powder Concentrate (content by LCMSMS): 2.66 mg/g powder
[1]; day 150
  Stability in Powder Concentrate (content by LCMSMS): 2.61 mg/g powder
[1]; day 180
  Stability in Powder Concentrate (content by LCMSMS): 2.59 mg/g powder
[1]; day 210
  Stability in Powder Concentrate (content by LCMSMS): 2.54 mg/g powder
[1]; day 240
  Stability in Powder Concentrate (content by LCMSMS): 2.53 mg/g powder
[1]; day 270
  Stability in Powder Concentrate (content by LCMSMS): 2.47 mg/g powder
[1]; day 300
  Stability in Powder Concentrate (content by LCMSMS): 2.57 mg/g powder
[1]; day 330
  Stability in Powder Concentrate (content by LCMSMS): 2.49 mg/g powder
[1]; day 360
  Stability in Powder Concentrate (content by LCMSMS): 2.58 mg/g powder
[1]; day 390
  Stability in Powder Concentrate (content by LCMSMS): 2.48 mg/g powder
[1]; day 420
  Stability in Powder Concentrate (content by LCMSMS): 2.53 mg/g powder
[1]; day 450
  Stability in Powder Concentrate (content by LCMSMS): 2.61 mg/g powder
[1]; day 480
  Stability in Powder Concentrate (content by LCMSMS): 2.65 mg/g powder
[1]; day 510
  Stability in Powder Concentrate (content by LCMSMS): 2.64 mg/g powder
[1]; day 540
  Stability in Powder Concentrate (content by LCMSMS): 2.47 mg/g powder
[1]; day 570
  Stability in Powder Concentrate (content by LCMSMS): 2.64 mg/g powder
[2]; 8° C., 0 days
  Stability of Cannabinoids in AB Red: 12.9 µg/mL
[2]; 8° C., 1 days
  Stability of Cannabinoids in AB Red: 13.0 µg/mL
[2]; 8° C., 2 days
  Stability of Cannabinoids in AB Red: 13.0 µg/mL
[2]; 8° C., 3 days
  Stability of Cannabinoids in AB Red: 12.7 µg/mL
[2]; 8° C., 5 days
  Stability of Cannabinoids in AB Red: 13.0 µg/mL
[2]; 8° C., 8 days
  Stability of Cannabinoids in AB Red: 12.6 µg/mL
[2]; 8° C., 9 days
  Stability of Cannabinoids in AB Red: 12.7 µg/mL
[2]; 8° C., 10 days
  Stability of Cannabinoids in AB Red: 12.8 µg/mL
[2]; 8° C., 11 days
  Stability of Cannabinoids in AB Red: 12.8 µg/mL
[2]; 8° C., 12 days
  Stability of Cannabinoids in AB Red: 12.9 µg/mL
[2]; 8° C., 15 days
  Stability of Cannabinoids in AB Red: 12.9 µg/mL
[2]; 8° C., 16 days
  Stability of Cannabinoids in AB Red: 12.7 µg/mL
[2]; 8° C., 17 days
  Stability of Cannabinoids in AB Red: 12.6 µg/mL
[2]; 8° C., 18 days
  Stability of Cannabinoids in AB Red: 12.8 µg/mL
[2]; 8° C., 19 days
  Stability of Cannabinoids in AB Red: 12.7 µg/mL
[2]; 8° C., 22 days
  Stability of Cannabinoids in AB Red: 12.7 µg/mL
[2]; 8° C., 23 days
  Stability of Cannabinoids in AB Red: 12.9 µg/mL
[2]; 8° C., 24 days
  Stability of Cannabinoids in AB Red: 12.9 µg/mL
[2]; 8° C., 25 days
  Stability of Cannabinoids in AB Red: 12.9 µg/mL
[2]; 8° C., 26 days
  Stability of Cannabinoids in AB Red: 12.7 µg/mL
[2]; 8° C., 29 days
  Stability of Cannabinoids in AB Red: 12.7 µg/mL
[2]; 8° C., 30 days
  Stability of Cannabinoids in AB Red: 12.9 µg/mL
[2]; 8° C., 60 days
  Stability of Cannabinoids in AB Red: 12.5 µg/mL
[2]; 8° C., 90 days
  Stability of Cannabinoids in AB Red: 13.0 µg/mL
[2]; 8° C., 120 days
  Stability of Cannabinoids in AB Red: 12.4 µg/mL
[2]; 8° C., 150 days
  Stability of Cannabinoids in AB Red: 12.8 µg/mL
[2]; 8° C., 180 days
  Stability of Cannabinoids in AB Red: 12.6 µg/mL
[2]; 8° C., 210 days
  Stability of Cannabinoids in AB Red: 12.3 µg/mL
[2]; 8° C., 240 days
  Stability of Cannabinoids in AB Red: 12.4 µg/mL
[2]; 8° C., 270 days
  Stability of Cannabinoids in AB Red: 12.6 µg/mL
[2]; 8° C., 300 days
  Stability of Cannabinoids in AB Red: 12.4 µg/mL
[2]; 8° C., 330 days
  Stability of Cannabinoids in AB Red: 12.7 µg/mL
[2]; 8° C., 390 days
  Stability of Cannabinoids in AB Red: 12.4 µg/mL
[2]; 8° C., 420 days
  Stability of Cannabinoids in AB Red: 12.4 µg/mL
[2]; 8° C., 450 days
  Stability of Cannabinoids in AB Red: 12.4 µg/mL
[2]; 8° C., 480 days
  Stability of Cannabinoids in AB Red: 12.2 µg/mL
[2]; 8° C., 510 days
  Stability of Cannabinoids in AB Red: 12.0 µg/mL
[2]; 8° C., 540 days
  Stability of Cannabinoids in AB Red: 11.9 µg/mL
[2]; 8° C., 570 days
  Stability of Cannabinoids in AB Red: 11.8 µg/mL
[2]; 21-25° C., 0 days
  Stability of Cannabinoids in AB Red: 12.9 µg/mL
[2]; 21-25° C., 1 days
  Stability of Cannabinoids in AB Red: 13.0 µg/mL
[2]; 21-25° C., 2 days
  Stability of Cannabinoids in AB Red: 13.0 µg/mL
[2]; 21-25° C., 3 days
  Stability of Cannabinoids in AB Red: 12.6 µg/mL
[2]; 21-25° C., 5 days
  Stability of Cannabinoids in AB Red: 12.4 µg/mL
[2]; 21-25° C., 8 days
  Stability of Cannabinoids in AB Red: 12.7 µg/mL
[2]; 21-25° C., 9 days
  Stability of Cannabinoids in AB Red: 12.8 µg/mL
[2]; 21-25° C., 10 days
  Stability of Cannabinoids in AB Red: 12.5 µg/mL
[2]; 21-25° C., 11 days
  Stability of Cannabinoids in AB Red: 12.9 µg/mL
[2]; 21-25° C., 12 days
  Stability of Cannabinoids in AB Red: 13.0 µg/mL
[2]; 21-25° C., 15 days
  Stability of Cannabinoids in AB Red: 12.7 µg/mL
[2]; 21-25° C., 16 days
  Stability of Cannabinoids in AB Red: 12.4 µg/mL
[2]; 21-25° C., 17 days
  Stability of Cannabinoids in AB Red: 12.9 µg/mL
[2]; 21-25° C., 18 days
  Stability of Cannabinoids in AB Red: 12.8 µg/mL
[2]; 21-25° C., 19 days
  Stability of Cannabinoids in AB Red: 12.8 µg/mL
[2]; 21-25° C., 22 days
  Stability of Cannabinoids in AB Red: 12.9 µg/mL
[2]; 21-25° C., 23 days
  Stability of Cannabinoids in AB Red: 12.9 µg/mL
[2]; 21-25° C., 24 days
  Stability of Cannabinoids in AB Red: 12.5 µg/mL
[2]; 21-25° C., 25 days
  Stability of Cannabinoids in AB Red: 12.5 µg/mL
[2]; 21-25° C., 26 days
  Stability of Cannabinoids in AB Red: 12.4 µg/mL
[2]; 21-25° C., 29 days
  Stability of Cannabinoids in AB Red: 12.7 µg/mL
[2]; 21-25° C., 30 days
  Stability of Cannabinoids in AB Red: 12.4 µg/mL
[2]; 21-25° C., 60 days
  Stability of Cannabinoids in AB Red: 12.2 µg/mL
[2]; 21-25° C., 90 days
  Stability of Cannabinoids in AB Red: 12.8 µg/mL
[2]; 21-25° C., 120 days
  Stability of Cannabinoids in AB Red: 12.4 µg/mL
[2]; 21-25° C., 150 days
  Stability of Cannabinoids in AB Red: 12.4 µg/mL
[2]; 21-25° C., 180 days
  Stability of Cannabinoids in AB Red: 12.8 µg/mL
[2]; 21-25° C., 210 days
  Stability of Cannabinoids in AB Red: 12.4 µg/mL
[2]; 21-25° C., 240 days
  Stability of Cannabinoids in AB Red: 12.5 µg/mL
[2]; 21-25° C., 270 days
  Stability of Cannabinoids in AB Red: 12.5 µg/mL
[2]; 21-25° C., 300 days
  Stability of Cannabinoids in AB Red: 12.4 µg/mL
[2]; 21-25° C., 330 days
  Stability of Cannabinoids in AB Red: 12.1 µg/mL
[2]; 21-25° C., 390 days
  Stability of Cannabinoids in AB Red: 12.1 µg/mL
[2]; 21-25° C., 420 days
  Stability of Cannabinoids in AB Red: 12.2 µg/mL
[2]; 21-25° C., 450 days
  Stability of Cannabinoids in AB Red: 12.2 µg/mL
[2]; 21-25° C., 480 days
  Stability of Cannabinoids in AB Red: 11.8 µg/mL
[2]; 21-25° C., 510 days
  Stability of Cannabinoids in AB Red: 12.3 µg/mL
[2]; 21-25° C., 540 days
  Stability of Cannabinoids in AB Red: 12.2 µg/mL
[2]; 21-25° C., 570 days
  Stability of Cannabinoids in AB Red: 11.8 µg/mL
[2]; stored at 8° C., 570 days
  Chemical stability over the entire period (result in words): high degree of stability
[2]; stored at 21-25° C., 570 days
  Chemical stability over the entire period (result in words): high degree of stability
